Results as given in patent US20220339178A1, “COMPOSITIONS AND METHODS FOR COGNITIVE PROTECTION OF POLLINATORS AGAINST PESTICIDES” (priority 2019, published 2022).

Columns and labels:
[1] = tested on: Drosophila melanogaster; assay: Motor activity (negative geotropic response) test in flies: rutin vs imidacloprid; type: in vivo
Experimental: Standard methods were relied on to test motor activity and motor impairments in Drosophila melanogaster (Jimenez-Del-Rio et al. 2010. Neurochem Res 35:227-238). The method relies on the negative geotropic response (i.e. preference to walk up when standing on a wall) of insects. Four-day-old (post eclosion) D. melanogaster females were randomly assigned to one of four treatments: Control (fed on 5% sugar-water), Rutin 0.1 (fed on a solution 0.1 μM rutin in 5% sugar-water), Rutin 1 (fed on a solution 1 μM rutin in 5% sugar-water), Rutin 10 (fed on a solution 10 uM rutin in 5% sugar-water). After three days flies from each group were randomly assigned to one of two treatments: 5% sugar-water or 0.1 μM imid in 5% sugar-water. Thus, flies were in one of eight treatments: Control, Imid, Rut 0.1, Rut 0.1+Imid, Rut 1, Rut 1+Imid, Rut 10, Rut 10+Imid. Flies were exposed to their specific treatment for 22 h.
Following standard methods, flies were transferred to a clean vial and a threshold of 5 cm from the bottom was set on the vial. The bottom of the vial was knocked on the table to assure all flies were moved to the bottom. The number of flies that crossed the threshold within 6 seconds were counted. Data were analyzed using a Chi-square with specific predictions (one-tail tests) for planned comparisons. Error associated with multiple comparisons was corrected using the False Discovery Rate-method (two stage sharpen method).

[2] = tested on: bumblebee Bombus impatiens; assay: Olfactory conditioning of PER in bumblebees: ad libitum rutin vs acute imidacloprid or fipronil; type: in vivo; details: for learning score relative to Control bees: score 0-10, ad libitum 1 μM rutin three days, 5 nM imidacloprid or 6 nM fipronil 20 μL 2 hours before training
Experimental: One colony of the bumblebee Bombus impatiens (Koppert Inc) was kept in laboratory conditions. Bees received pollen inside the nests and foraged to a 1M sugar-water feeder outside of the nest. Bees were collected while on the feeder and iced anesthetized to then be randomly assigned to one of two plastic containers where ad libitum self-administration of one of two solutions was allowed to 10 bees: i) 1 M sucrose water or ii) 1 μM Rutin (Sigma-Aldrich R5143) diluted in 1M sucrose water. On the night of the third day, the feeder was removed to starve the bees. On the fourth day, the bees were iced anesthetized and yolked restrained in plastic pipettes. Bees were maintained in the pipettes for the rest of the experiment (two days). One hour after harnessing, the bees were randomly assigned to one of three treatments: i) 20 μL of 1M sucrose water, ii) 20 μL of 1M sucrose water+5 nM imidacloprid, iii) 20 μL of 1M sucrose water+6 nM fipronil. Thus, overall bees belonged to one of six treatments:
Control: ad libitum sucrose water for three days and 20 μL of sucrose water before training
Rutin: ad libitum 1 μM Rutin for three days and 20 μL of sucrose water before training
Imid: ad libitum sucrose water for three days and 20 μL of 5 nM Imidacloprid in 1M sugar water 2 hours before training
Rutin+Imid: ad libitum 1 μM Rutin for three days and 20 μL of 5 nM Imidacloprid in 1M sugar water 2 hours before training
Fipronil: ad libitum sucrose water for three days and 20 μL of 5 nM fipronil in 1M sucrose water 2 hours before training
Rutin+Fipronil: ad libitum […] Rutin for three days and 20 μL of 6 nM fipronil in 1M sugar water 2 hours before training
All bees were blind-trained using olfactory conditioning of the proboscis extension response (PER). Briefly, bees were exposed to a presentation of 1-nonanol (Sigma-Aldrich) for 10 s. After 7 s of the onset of the odor presentation, the antenna was stimulated with 1.5 M sugar-water to elicit the PER. Following the PER, the bee was allowed to drink sugar-water for 3 s. Each paired presentation was considered a training trial and each individual received eleven training trials with an average intertrial interval of 10 minutes. After training, all bees were fed 20 μL of 1M sugar water and maintained in plastic boxes for 24 h until the retention test. […] Twenty-four hours after the last training trial the bees were presented with the conditioned odor for 10 s.
Learning for each individual was quantified as the number of conditioned PER responses across the trials. Thus, for each bee a learning score between zero and ten (0-10) was recorded.
Multiple comparisons were then run comparing learning score relative to Control bees using a non-parametric one or two-tailed Steel Method depending upon predictions. These comparisons informed us about the predicted impairment produced by the insecticides, the predicted innocuous effect of the flavonoid and the potential level of protection. Error due to multiple comparisons was controlled using the False Discovery Rate method (FDR-two stage sharpened method). In all cases corrected p-values (q-values) are presented.
Memory retention was quantified as a nominal variable (yes/no). Data were compared across treatments using a Chi-square test, followed by multiple comparisons of all treatments vs. Control. Error due to multiple comparisons was controlled using the FDR as indicated above. In all cases corrected p-values (q values) are presented.
Latency was quantified as a continuous variable between 0.5 s and 10 s. Data were compared across treatments using an ANOVA following a Log transformation to normalize the distribution (Shapiro-Wilk W Test after log transformation: p>0.05 for all treatments for the null hypothesis that data is from a normal distribution), followed by multiple comparisons between all treatments and the Control group. Error due to multiple comparisons was controlled using the FDR method as indicated above. […]

Row | SMILES | motor performance relative to flies in the control group ([1]; 0.1 μM imid in 5% sugar-water for 22 h, flies crossing 5 cm threshold within 6 seconds) | motor performance relative to flies prophylactically receiving 0.1 μM rutin ([1]; comparator rutin 0.1 μM then imid) | motor performance relative to flies prophylactically receiving 1 NM rutin ([1]; comparator rutin 1 μM then imid) | motor performance relative to flies prophylactically receiving 10 μM rutin ([1]; comparator rutin 10 μM then imid) | odds of remembering for Control bees relative to insecticide bees ([2]; 24 h retention) [times] | proportion difference Control minus insecticide group for a PER response (Adjusted Wald test) ([2]; 24 h retention) | decision-making ratio (latency of response / learning score) relative to Control bees ([2]; bumblebees) | bees exhibiting a conditioned response after 24 h ([2]; bumblebees, 24 h retention test) [%] | learning score relative to Control bees ([2]; bumblebees) | protection against imidacloprid neuromotor impairment ([1]; flies fed rutin 0.1, 1 or 10 μM for three days before 0.1 μM imid)
1 | O=[N+]([O-])NC1=NCCN1Cc1ccc(Cl)nc1 [Imidacloprid] | lower performance | significantly lower | significantly lower | significantly lower | 12 | 0.51 | significant increase | 13 | significantly lower | –
2 | C[C@@H]1O[C@@H](OC[C@H]2O[C@@H](Oc3c(-c4ccc(O)c(O)c4)oc4cc(O)cc(O)c4c3=O)[C@H](O)[C@@H](O)[C@@H]2O)[C@H](O)[C@H](O)[C@H]1O [Rutin] | – | – | – | – | – | – | – | – | not significantly different | protected against this impairment
